Laboratory results published in PMC9837865 (Pharmacology, biochemistry, and behavior, 2022).
Where two headings read alike, the source gives them in different places.

Experiments:
hCB2 receptor [1] = target: T1, hCB2 receptor (Homo sapiens, UniProt P34972); experiment: Agonist-stimulated [35S]GTPγS binding, hCB2 HEK293 membranes; settings: for greater potency at hCB2 receptors than at hCB1 receptors: [35S]GTPγS potency ratio
hCB1 receptor [2] = target: T2, hCB1 receptor (Homo sapiens, UniProt P21554); experiment: [3H]CP55,940 competition binding at hCB1 in HEK293 cell membranes; settings: for Ki: value in parenthesis
male ICR mice [3] = experiment: Rectal temperature time course
hCB1 receptor [4] = target: T2, hCB1 receptor; experiment: Agonist-stimulated [35S]GTPγS binding, hCB1 HEK293 membranes
hCB2 receptor [5] = target: T1, hCB2 receptor; experiment: [3H]CP55,940 competition binding at hCB2 in HEK293 cell membranes; settings: for greater affinity at hCB2 receptors than at hCB1: binding affinity ratio hCB2 over hCB1
male ICR mice [6] = experiment: Rectal temperature dose-effect; settings: for maximal hypothermia, difference from that produced by Δ9-THC: across the dose range tested
[7] = radiotelemetry, 6-h period; ref Sparkes et al., 2022; cited from earlier work
[8] = [35S]GTPγS Turnover CB2 EC50, value in parenthesis
[9] = [35S]GTPγS Turnover CB2 pEC50, pEC50 ± SEM
[10] = CB1 Ki, [3H]CP55,940 displacement
[11] = 3 mg/kg i.p., compared to vehicle at same timepoint
[12] = CB2 Ki, [3H]CP55,940 displacement, value in parenthesis
[13] = 10 mg/kg i.p., compared to vehicle at same timepoint
[14] = 100 mg/kg i.p., compared to vehicle at same timepoint
[15] = [3H]CP55,940 displacement, pKi ± SEM

T2 sequence (P21554 whole entry): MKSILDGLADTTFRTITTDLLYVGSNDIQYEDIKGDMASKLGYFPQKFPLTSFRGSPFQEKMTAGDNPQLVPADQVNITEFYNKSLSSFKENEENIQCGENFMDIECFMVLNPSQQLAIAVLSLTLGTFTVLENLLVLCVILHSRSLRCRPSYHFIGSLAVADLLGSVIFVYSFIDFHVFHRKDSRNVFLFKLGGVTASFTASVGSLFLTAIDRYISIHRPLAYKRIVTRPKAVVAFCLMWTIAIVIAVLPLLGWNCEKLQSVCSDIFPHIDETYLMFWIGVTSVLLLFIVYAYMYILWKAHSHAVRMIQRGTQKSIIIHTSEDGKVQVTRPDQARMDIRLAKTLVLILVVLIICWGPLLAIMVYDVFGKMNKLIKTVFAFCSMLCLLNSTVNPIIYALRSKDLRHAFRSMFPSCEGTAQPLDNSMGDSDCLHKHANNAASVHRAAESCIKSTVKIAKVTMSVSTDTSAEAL
T1 sequence (P34972 whole entry): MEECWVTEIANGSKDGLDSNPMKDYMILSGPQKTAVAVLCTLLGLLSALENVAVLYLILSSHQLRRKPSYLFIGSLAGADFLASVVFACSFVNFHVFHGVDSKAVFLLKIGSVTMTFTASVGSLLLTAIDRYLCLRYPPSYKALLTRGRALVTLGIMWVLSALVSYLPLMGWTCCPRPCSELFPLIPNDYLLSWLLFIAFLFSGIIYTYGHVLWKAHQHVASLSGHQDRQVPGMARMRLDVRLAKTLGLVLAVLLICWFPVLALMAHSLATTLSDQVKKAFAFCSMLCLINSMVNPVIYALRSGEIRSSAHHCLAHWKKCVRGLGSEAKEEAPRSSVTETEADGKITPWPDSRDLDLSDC

Row | Structure (SMILES) | [35S]GTPγS Turnover CB2 Emax (hCB2 receptor [1]) | EC50 (hCB2 receptor [1]; [8]) | Ki (hCB1 receptor [2]; [10]) | duration of significant hypothermic effect (male ICR mice [3]; [11]) | EC50 (hCB1 receptor [4]) | [35S]GTPγS Turnover CB1 Emax (hCB1 receptor [4]) | Ki (hCB2 receptor [5]; [12]) | maximal hypothermia, difference from that produced by Δ9-THC (male ICR mice [6]) | greater potency at hCB2 receptors than at hCB1 receptors (hCB2 receptor [1]) | greater affinity at hCB2 receptors than at hCB1 (hCB2 receptor [5]) | further results
1 | CCOC(=O)C(NC(=O)c1nn(CCCCCF)c2ccccc12)C(C)(C)C (stereo not drawn) [5F-EDMB-PINACA, ethyl 2-(1-(5-fluoropentyl)-1H-indazole-3-carboxamido)-3,3-dimethylbutanoate] | 161 ± 8.36 3 % stimulation over basal | 0.442 nM | 0.378 nM | 3 h | 1.6 nM | 387 ± 69.0 ^† 3 % stimulation over basal | 0.312 nM | – | – | – | EC50 (hCB2 receptor [1]; [9]): 0.437 nM
2 | COC(=O)[C@@H](NC(=O)c1cn(CCCCCF)c2ccccc12)C(C)(C)C [5F-MDMB-PICA, methyl (2S)-2-{[1-(5-fluoropentyl)-1H-indole-3-carbonyl]amino}-3,3-dimethylbutanoate] | 189 ± 25.2 3 % stimulation over basal | 1.65 nM | 1.25 nM | 7 h | 5.07 nM | 380 ± 27.4 ^^ 3 % stimulation over basal | 0.437 nM | – | – | – | –
3 | COC(=O)[C@@H](NC(=O)c1cn(CCCCCF)c2ccccc12)C(C)C [5F-MMB-PICA, methyl (2S)-2-[[1-(5-fluoropentyl)indole-3-carbonyl]amino]-3-methylbutanoate] | 77.8 ± 13.3 3 % stimulation over basal | 8.19 nM | 6.45 nM | – | 27 nM | 295 ± 21.2 ^† 3 % stimulation over basal | 3.4 nM | ≤ 1.5 °C | – | – | duration of significant hypothermic effect (male ICR mice [3]; [13]): 3 h
4 | CCCCn1nc(C(=O)N[C@@H](Cc2ccccc2)C(N)=O)c2ccccc21 [APP-BINACA, N-[(2S)-1-amino-1-oxo-3-phenylpropan-2-yl]-1-butylindazole-3-carboxamide] | 83.2 ± 2.72 3 % stimulation over basal | 2.24 nM | 107 nM | – | 344 nM | 180 ± 25.1 3 % stimulation over basal | 9.34 nM | – | 153 fold | 12 fold | duration of significant hypothermic effect (male ICR mice [3]; [14]): 4 h; hypothermia [7]: failed to produce any hypothermia
5 | CC1(C)C(C(=O)c2cn(Cc3ccc(F)cc3)c3ccccc23)C1(C)C [FUB-144, (1-(4-fluorobenzyl)-1H-indol-3-yl)(2,2,3,3-tetramethylcyclopropyl)methanone] | 194 ± 8.45 3 % stimulation over basal | 4.61 nM | 27.2 nM | – | 90.6 nM | 218 ± 31.5 4 % stimulation over basal | 1.19 nM | ≤ 1.5 °C | 20 fold | 23 fold | duration of significant hypothermic effect (male ICR mice [3]; 20 mg/kg i.p.): 1 h; Ki (hCB2 receptor [5]; CB2 pKi, [3H]CP55,940 displacement, pKi ± SEM): 1.17 nM
6 | O=C(NC12CC3CC(CC(C3)C1)C2)c1nn(Cc2ccc(F)cc2)c2ccccc12 [FUB-AKB48, N-((3s,5s,7s)-adamantan-1-yl)-1-(4-fluorobenzyl)-1H-indazole-3-carboxamide] | 131 ± 16.5 4 % stimulation over basal | – | – | – | – | 368 ± 55.5 ^‡ 4 % stimulation over basal | – | ≤ 1.5 °C | 16 fold | – | [35S]GTPγS Turnover CB2 pEC50 (hCB2 receptor [1]; pEC50 ± SEM): 9.37 ± 0.318; EC50 (hCB2 receptor [1]; read-out: [35S]GTPγS Turnover CB2 EC50, value in parenthesis): 0.424 nM; CB1 pKi (hCB1 receptor [2]; [15]): 8.89 ± 0.265; Ki (hCB1 receptor [2]; read-out: CB1 Ki, [3H]CP55,940 displacement): 1.3 nM; duration of significant hypothermic effect (male ICR mice [3]; [13]): ≤ 1 h; [35S]GTPγS Turnover CB1 pEC50 (hCB1 receptor [4]; pEC50 ± SEM): 8.16 ± 0.162; EC50 (hCB1 receptor [4]; read-out: [35S]GTPγS Turnover CB1 EC50, value in parenthesis): 6.94 nM; CB2 pKi (hCB2 receptor [5]; [15]): 9.08 ± 0.0188; Ki (hCB2 receptor [5]; read-out: CB2 Ki, [3H]CP55,940 displacement, value in parenthesis): 0.823 nM
7 | C=CCCCn1nc(C(=O)NC(C(=O)OC)C(C)(C)C)c2ccccc21 (stereo not drawn) [MDMB-4en-PINACA, methyl 3,3-dimethyl-2-{[1-(pent-4-en-1-yl)-1H-indazole-3-carbonyl]amino}butanoate] | 63.6 ± 9.95 3 % stimulation over basal | 1.34 nM | 1.4 nM | 4 h | 3.3 nM | 304 ± 42.8 ^‡ 3 % stimulation over basal | 0.213 nM | – | – | 7 fold | –
8 | C=CCCCn1cc(C(=O)NC(C(=O)OC)C(C)C)c2ccccc21 (stereo not drawn) [MMB-4en-PICA, methyl 3-methyl-2-[(1-pent-4-enylindole-3-carbonyl)amino]butanoate] | 77.6 ± 7.17 5 % stimulation over basal | 12.4 nM | 39 nM | – | 60.7 nM | 298 ± 31.9 ^‡ 4 % stimulation over basal | 15.6 nM | ≤ 1.5 °C | – | – | duration of significant hypothermic effect (male ICR mice [3]; 60 mg/kg i.p.): 5 h
9 | COC(=O)C(NC(=O)c1cn(Cc2ccc(F)cc2)c2ccccc12)C(C)C (stereo not drawn) [MMB-FUBICA, methyl 2-(1-(4-fluorobenzyl)-1H-indole-3-carboxamido)-3-methylbutanoate] | 52.1 ± 6.73 3 % stimulation over basal | 22.1 nM | 12 nM | – | 59.7 nM | 278 ± 29.3 ^† 3 % stimulation over basal | 22.5 nM | ≤ 1.5 °C | – | – | EC50 (hCB2 receptor [1]; [9]): 22.4 nM; greater affinity for CB1 than CB2 (hCB1 receptor [2]; binding affinity ratio CB1 over CB2): approximately 2 fold; duration of significant hypothermic effect (male ICR mice [3]; 6 mg/kg i.p.): 2 h
10 | CCCCCc1cc(O)c2c(c1)OC(C)(C)[C@@H]1CCC(C)=C[C@@H]21 [Δ^9-THC, Δ^9-tetrahydrocannabinol, reference compound] | – | – | – | – | – | – | – | – | – | – | time of peak hypothermic effect post-injection (male ICR mice [3]; 100 mg/kg i.p.): 1 to 3 h; duration of significant hypothermic effect (male ICR mice [3]; [14]): 8 h; time of peak hypothermic effects (male ICR mice [3]; single dose of each compound, as summarised in the discussion): 2 h; lowest dose that decreased temperature (male ICR mice [6]; i.p., compared to vehicle): 30 mg/kg
